How the values were obtained:
NF-κB = NF-κB nuclear membrane translocation, EMSA, LPS-treated NR8383 cells; type: cell-based; conditions: Rattus norvegicus
Method: Experiments measuring test agents effect on NF-κB nuclear membrane translocation were performed with NR8383 cells, which are transformed rat alveolar macrophages. […] In addition, some compounds were tested at doses of 10 and 30 μM. Untreated control cells and cells treated with LPS alone were tested in each experiment. Cells were harvested 6 hours after treatment. Nuclear proteins were extracted, frozen and quantified using the Bradford assay. Electrophoretic mobility shift assays (EMSA) were subsequently analyzed using a radiolabeled NF-κB probe. Nuclear proteins were reacted with the radiolabeled probe, run on a 5% polyacrylamide gel, and subjected to autoradiography. Specificity of protein binding for the NF-κB binding site was assayed by cold and nonspecific competition using the LPS treated sample in each experiment. All EMSA were duplicated at least once to verify results. Laser densitometry of NF-κB bands was done on autoradiographs to quantify NF-κB binding activity.

[1] = target: T1, Cyclooxygenase-1 (cyclooxygenase from ram seminal vesicles) (Ovis aries, UniProt P05979); experiment: Cyclooxygenase-1 screen (COX-1); type: biochemical; conditions: 300 μM
T1 construct: cyclooxygenase from ram seminal vesicles; from tissue; host or cells: ram seminal vesicles
T1 sequence (P05979 25-600): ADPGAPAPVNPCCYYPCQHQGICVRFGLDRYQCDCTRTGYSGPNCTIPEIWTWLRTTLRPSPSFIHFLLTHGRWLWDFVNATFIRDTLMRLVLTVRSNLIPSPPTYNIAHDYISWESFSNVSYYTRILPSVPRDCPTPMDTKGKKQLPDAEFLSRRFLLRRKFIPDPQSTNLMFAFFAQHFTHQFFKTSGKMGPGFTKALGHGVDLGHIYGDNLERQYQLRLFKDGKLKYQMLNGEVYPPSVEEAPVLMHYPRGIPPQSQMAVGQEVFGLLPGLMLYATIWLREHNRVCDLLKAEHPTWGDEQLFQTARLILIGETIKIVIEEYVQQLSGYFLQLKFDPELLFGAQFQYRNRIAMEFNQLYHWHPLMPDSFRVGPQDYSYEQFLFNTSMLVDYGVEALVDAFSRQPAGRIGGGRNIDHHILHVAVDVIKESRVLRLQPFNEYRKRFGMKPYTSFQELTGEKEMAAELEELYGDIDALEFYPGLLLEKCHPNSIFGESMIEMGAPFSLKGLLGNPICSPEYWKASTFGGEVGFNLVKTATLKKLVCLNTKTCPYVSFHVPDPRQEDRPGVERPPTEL
Method: (§1) The compounds of the invention were screened for their anti-inflammatory activity using a series of in vitro tests the details of which are given below. The activity of various compounds against 5-lipoxygenase, cycloxygenase-1, cycloxygenase-2 and lipid peroxidase was evaluated. Results of the screening procedures are included in TABLE I, and the activity against 5-lipoxygenase at a test concentration of 1 μM in Table II.
Cyclooxygenase-1 is involved in the formation of prostaglandins and thromboxane via the oxidative metabolism of arachidonic acid. Briefly, cyclooxygenase from ram seminal vesicles is incubated with arachidonic acid (100 μm) for 2 minutes at 37° C. in the presence or absence of test compounds according to the methods of A. T. Evans et al., Biochem. Pharm. 36:2035-2037(1987) and R. Boopathy et al., Biochem J. 239:371-377 (1968). The assay is terminated by the addition of trichioroacetic acid and cyclooxygenase activity is determined by reading the absorbance at 530 nm. […]

[2] = target: T2, Cyclooxygenase-2 (prostaglandin H synthetase-2) from sheep placenta (Ovis aries, UniProt P79208); experiment: Cyclooxygenase-2 screen (COX-2); type: biochemical; conditions: read-out: COX-2 percent inhibition
T2 construct: cyclooxygenase-2 from sheep placenta; from tissue; host or cells: sheep placenta
T2 sequence (P79208 17-603): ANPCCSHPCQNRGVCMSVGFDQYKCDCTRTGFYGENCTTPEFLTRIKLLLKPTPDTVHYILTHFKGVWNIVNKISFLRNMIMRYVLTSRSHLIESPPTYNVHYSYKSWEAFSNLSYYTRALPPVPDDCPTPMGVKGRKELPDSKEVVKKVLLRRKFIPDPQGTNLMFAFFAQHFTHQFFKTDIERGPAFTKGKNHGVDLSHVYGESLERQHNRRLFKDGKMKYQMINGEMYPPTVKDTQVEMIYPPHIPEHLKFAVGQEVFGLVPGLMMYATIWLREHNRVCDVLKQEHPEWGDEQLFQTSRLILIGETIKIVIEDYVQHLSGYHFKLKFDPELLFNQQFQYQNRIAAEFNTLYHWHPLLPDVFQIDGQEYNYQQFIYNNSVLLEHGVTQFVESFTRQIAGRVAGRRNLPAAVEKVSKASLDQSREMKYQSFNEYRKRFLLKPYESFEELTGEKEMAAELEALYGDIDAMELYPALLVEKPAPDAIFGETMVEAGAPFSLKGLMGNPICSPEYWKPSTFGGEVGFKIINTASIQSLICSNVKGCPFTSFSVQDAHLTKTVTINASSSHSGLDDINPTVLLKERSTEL
Method: as §1
Cyclooxygenase-2, also known as prostaglandin H synthetase-2, catalyzes the rate- limiting step in the synthesis of inflammatory prostaglandins. In this reaction cyclooxygenase-2 catalyzes the oxygenation of unesterified precursors to form cyclic endoperoxide derivatives, including prostaglandin H. Briefly, cyclooxygenase-2 from sheep placenta, 14 μg/assay tube, is incubated with arachidonic acid (500 μM) for 1.5 minutes at 27° C. in the absence or presence of test compounds according to the methods of A. T. Evans, et al., Biochem Pharm. […] Res. Comm. […] Compounds are screened at 300 μM.

[3] = target: T3, 5-Lipoxygenase (crude enzyme preparation from rat basophilic leukemia cells, RBL-1) (Rattus norvegicus, UniProt P12527); experiment: 5-Lipoxygenase screen (5-LO), 5-HETE by RIA; type: biochemical; conditions: for inhibition at 30 µM: read-out: 5-LO percent inhibition; for inhibition at 1 µM: read-out: Percent inhibition of 5-LO, test conc. 1 μM (Table II)
T3 construct: crude enzyme preparation from rat basophilic leukemia cells (RBL-1); endogenous in cells; host or cells: rat basophilic leukemia cells (RBL-1)
T3 sequence (P12527 1-673): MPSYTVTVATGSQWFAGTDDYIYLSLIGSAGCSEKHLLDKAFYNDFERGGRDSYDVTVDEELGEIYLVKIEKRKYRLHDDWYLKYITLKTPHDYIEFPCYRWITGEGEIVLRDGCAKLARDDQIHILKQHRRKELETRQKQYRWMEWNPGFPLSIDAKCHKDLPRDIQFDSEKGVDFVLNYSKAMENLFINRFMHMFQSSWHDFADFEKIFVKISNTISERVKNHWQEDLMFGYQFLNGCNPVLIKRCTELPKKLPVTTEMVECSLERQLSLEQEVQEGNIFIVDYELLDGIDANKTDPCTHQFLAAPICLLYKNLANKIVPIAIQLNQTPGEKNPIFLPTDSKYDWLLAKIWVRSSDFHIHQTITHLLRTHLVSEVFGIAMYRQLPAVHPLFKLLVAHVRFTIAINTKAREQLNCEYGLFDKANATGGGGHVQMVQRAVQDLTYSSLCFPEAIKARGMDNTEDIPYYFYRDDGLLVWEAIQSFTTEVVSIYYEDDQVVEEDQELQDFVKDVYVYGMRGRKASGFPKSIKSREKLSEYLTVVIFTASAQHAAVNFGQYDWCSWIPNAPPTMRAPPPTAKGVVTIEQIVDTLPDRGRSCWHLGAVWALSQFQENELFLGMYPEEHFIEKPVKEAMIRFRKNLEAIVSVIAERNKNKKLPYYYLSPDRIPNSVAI
Method: as §1
5-Lipoxygenase catalyzes the oxidative metabolism of arachidonic acid to […] (5-HETE), the initial reaction leading to the formation of the leukotrienes. Briefly, the testing procedure utilizes a crude enzyme preparation from rat basophilic leukemia cells (RBL-1) according to the methods of T. Shimuzu et al. Pro. […] Test compounds are pre-incubated with the enzyme preparation for 5 minutes at room temperature and the reaction is initiated by the addition of arachidonic acid. Following an 8 minute incubation at room temperature, the reaction is terminated by the addition of citric acid and concentrations of 5-HETE are determined by RIA. Compounds are screened at 30 μM.

[4] = test system: Lipid peroxidation (rat liver microsomes); experiment: Lipid peroxidation screen (LPO), CCl4-induced, liver microsomes; type: biochemical; conditions: 300 μM
Method: as §1
Lipid peroxidation is a consequence of various stimuli, including reactive free radicals. Polyunsaturated fatty acids associated with plasma membranes are degraded due to enzymatic induction by reactive agents such as CCl4, leading to cellular damage. Briefly, microsomes are prepared from rat livers and the protein concentration is determined according to the method of D. Mansuy et al., Biochem. Biophys. Res. Comm. 135:1015-1021(1986). A reaction mixture consisting of 2 mg of the microsomal preparation, an NADPH generating system, 20 mM CCl4 and test compound are incubated for 12 minutes at 37° C. The reaction is terminated by the addition of a mixture of thiobarbituric acid and trichloroacetic acid. The absorbance is read at 535 nm and is proportional to the concentration of malondialdehyde. Compounds are screened at 300 μM.

[5] = test system: Nuclear Factor-kappa B (NF-κB); experiment: NF-κB lacZ (κB-Z) reporter assay in transfected Jurkat cells stimulated with A23187 and PMA; type: cell-based, human; conditions: Homo sapiens; 10 μM; κB-Z Jurkat cells, A23187 and PMA (Table III); read-out: NF-κB percent inhibition
Method: The human T lymphoid cell line Jurkat was transfected with a response element lacZ reporter in which transcription of the β-galactosidase gene is directed by the binding site for the NF-κB transcription factor. […] At the end of the incubation, the cells are spun down and resuspended in the buffer and FDG (fluorescein di-β-D-galactopyranoside) solution. The covered plates are further incubated in the dark for 16 hours at 25° C. […] Compounds were screened at 10 μM.

Row | SMILES | inhibition at 1 µM (NF-κB; 6 h, read-out: % Inhibition (NF-κB nuclear translocation)) | COX-1 percent inhibition [1] | inhibition at 300 µM [2] | inhibition at 30 µM [3] | inhibition at 1 µM [3] | LPO percent inhibition [4] | inhibition at 10 µM [5] | inhibition at 0.03 µM (NF-κB; 30 nM, LPS 1 μg/ml, NR8383 cells, 6 hours)
1 | C[C@@H]1C[C@H]2[C@@H]3CCC4=CC(=O)C=C[C@]4(C)[C@@]3(F)[C@@H](O)C[C@]2(C)[C@@]1(O)C(=O)CO [Dexamethasone] | 60% |  |  |  |  |  |  | 
2 | O=C1OC(c2ccccc2)(c2ccccc2)C(O)=C1O [Example 8, 3,4-Dihydroxy-5,5-diphenyl-2(5H)-furanone] |  | 15% | 17% | 94% | 15% | 70% | 33% | 
3 | CCCC1(c2ccc(CC(C)C)cc2)OC(=O)C(O)=C1O (stereo not shown) [Example 9, 3,4-Dihydroxy-5-(4-isobutylphenyl)-5-(1-propyl)-2(5H)-furanone] |  | 25% | 19% | 82% | 40% | 79% | 26% | 
4 | CC(C)Cc1ccc(C2(c3ccccc3)OC(=O)C(O)=C2O)cc1 (stereo not shown) [Example 10, 3,4-Dihydroxy-5-(4-isobutylphenyl)-5-phenyl-2(5H)-furanone] |  | 43% | 34% | 106% | 64% | 89% | 16% | 
5 | C[C@@]1(c2ccc(-c3ccccc3)cc2)OC(=O)C(O)=C1O [Example 11, (S)-(+)-5-[(1,1'-Biphenyl)-4-yl]-3,4-dihydroxy-5-methyl-2(5H)-furanone] |  | 34% | 10% | 101% | 59% | 71% | 72% | 
6 | C[C@]1(c2ccc(-c3ccccc3)cc2)OC(=O)C(O)=C1O [Example 12, (R)-(-)-5-[(1,1'-Biphenyl)-4-yl]-3,4-dihydroxy-5-methyl-2(5H)-furanone] |  | 10% | 12% | 101% | 60% | 62% | 56% | 
7 | CC(C)Cc1ccc([C@@]2(C)OC(=O)C(O)=C2O)cc1 [Example 13, (R)-(-)-3,4-Dihydroxy-5-methyl-5-[4-(2-methylpropyl)phenyl]-2(5H)-furanone] |  | 12% | 14% | 102% | 59% | 76% | 49% | 
8 | CC(C)Cc1ccc([C@]2(C)OC(=O)C(O)=C2O)cc1 [Example 14, (S)-(+)-3,4-Dihydroxy-5-methyl-5-[4-(2-methylpropyl)phenyl]-2(5H)-furanone] |  | 12% | 18% | 96% | 50% | 66% | 60% | 
9 | O=C1OC(CCSc2nc(-c3ccccc3)c(-c3ccccc3)o2)C(O)=C1O (stereo not shown) [Example 24, 3,4-Dihydroxy-5-[2-(4,5-diphenyl-1,3-oxazole-2-thio)ethyl]-2(5H)-furanone] |  | 76% | 68% | 113% | 71% | 78% | 44% | 
10 | O=C1OC(CCC#Cc2ccc3ccccc3c2)C(O)=C1O (stereo not shown) [Example 32, 3,4-Dihydroxy-5-[4-(2-naphthyl)-3-butynyl]-2(5H)-furanone] |  | 34% | 23% | 98% | 66% | 75% |  | 90%
